How the values were obtained:
Assay type in all cases: cell-based
Exon19 deletion EGFR = biological target: T1, Exon19 deletion EGFR (Homo sapiens, UniProt P00533, DEL746-750); assay: Exon19 deletion EGFR (activating single mutant) cellular phosphorylation assay; settings: PC9 human lung cells (Exon 19 deletion EGFR); endogenous p-EGFR in cell lysates by ELISA; 2 h with compound; read-out: Assay 1 (IC50)
T1 construct: Assays to measure cellular phosphorylation of endogenous p-EGFR in cell lysates; endogenous in cells; host or cells: PC9 (human lung cell line)

L858R/T790M EGFR = biological target: T2, L858R/T790M EGFR (Homo sapiens, UniProt P00533, L858R/T790M); assay: L858R/T790M EGFR (double mutant) cellular phosphorylation assay; settings: NCI-H1975 human lung cells; endogenous p-EGFR in cell lysates by ELISA; 2 h with compound
T2 construct: Assays to measure cellular phosphorylation of endogenous p-EGFR in cell lysates; endogenous in cells; host or cells: NCI-H1975 (human lung cell line)

Wild-type EGFR = biological target: T3, Wild-type EGFR (Homo sapiens, UniProt P00533); assay: Wild-type EGFR cellular phosphorylation assay; settings: LoVo human colon cells; endogenous p-EGFR in cell lysates by ELISA; 2 h with compound, then stimulated 100 ng/ml for 10 minutes; read-out: Assay 3 (IC50)
T3 construct: Assays to measure cellular phosphorylation of endogenous p-EGFR in cell lysates; endogenous in cells; host or cells: LoVo (human colon cell line)
T3 sequence (P00533 25-1210): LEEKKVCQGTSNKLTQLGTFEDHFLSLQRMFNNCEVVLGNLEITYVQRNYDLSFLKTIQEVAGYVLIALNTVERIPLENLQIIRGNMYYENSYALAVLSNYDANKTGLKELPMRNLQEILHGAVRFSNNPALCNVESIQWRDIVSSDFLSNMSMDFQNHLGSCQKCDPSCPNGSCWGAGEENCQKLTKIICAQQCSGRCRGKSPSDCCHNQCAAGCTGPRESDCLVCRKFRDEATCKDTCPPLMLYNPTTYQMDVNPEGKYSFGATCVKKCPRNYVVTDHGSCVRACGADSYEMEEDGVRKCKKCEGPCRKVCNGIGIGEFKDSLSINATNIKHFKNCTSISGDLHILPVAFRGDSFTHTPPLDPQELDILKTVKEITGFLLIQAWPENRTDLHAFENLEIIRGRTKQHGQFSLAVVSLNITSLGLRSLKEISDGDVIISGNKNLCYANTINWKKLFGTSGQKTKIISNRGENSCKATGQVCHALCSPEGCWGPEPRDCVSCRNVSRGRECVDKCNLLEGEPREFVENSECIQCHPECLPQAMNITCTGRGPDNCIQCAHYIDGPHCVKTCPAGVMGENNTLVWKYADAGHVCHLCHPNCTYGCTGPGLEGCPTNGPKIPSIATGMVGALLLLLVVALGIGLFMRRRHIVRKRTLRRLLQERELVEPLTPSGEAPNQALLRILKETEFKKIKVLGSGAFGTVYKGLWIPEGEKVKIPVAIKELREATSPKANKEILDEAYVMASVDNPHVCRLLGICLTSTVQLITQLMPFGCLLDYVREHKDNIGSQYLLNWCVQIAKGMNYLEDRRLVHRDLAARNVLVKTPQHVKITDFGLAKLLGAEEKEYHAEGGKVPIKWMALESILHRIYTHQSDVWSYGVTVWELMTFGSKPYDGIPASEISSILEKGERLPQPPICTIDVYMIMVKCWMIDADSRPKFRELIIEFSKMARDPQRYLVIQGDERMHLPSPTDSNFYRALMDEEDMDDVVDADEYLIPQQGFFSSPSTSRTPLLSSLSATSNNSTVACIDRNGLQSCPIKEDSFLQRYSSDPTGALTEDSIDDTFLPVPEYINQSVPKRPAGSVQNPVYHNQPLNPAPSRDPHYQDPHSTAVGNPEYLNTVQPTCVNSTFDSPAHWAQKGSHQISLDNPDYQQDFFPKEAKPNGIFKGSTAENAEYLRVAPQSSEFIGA

T1 sequence (P00533 with tags, fused parts or gaps DEL746-750): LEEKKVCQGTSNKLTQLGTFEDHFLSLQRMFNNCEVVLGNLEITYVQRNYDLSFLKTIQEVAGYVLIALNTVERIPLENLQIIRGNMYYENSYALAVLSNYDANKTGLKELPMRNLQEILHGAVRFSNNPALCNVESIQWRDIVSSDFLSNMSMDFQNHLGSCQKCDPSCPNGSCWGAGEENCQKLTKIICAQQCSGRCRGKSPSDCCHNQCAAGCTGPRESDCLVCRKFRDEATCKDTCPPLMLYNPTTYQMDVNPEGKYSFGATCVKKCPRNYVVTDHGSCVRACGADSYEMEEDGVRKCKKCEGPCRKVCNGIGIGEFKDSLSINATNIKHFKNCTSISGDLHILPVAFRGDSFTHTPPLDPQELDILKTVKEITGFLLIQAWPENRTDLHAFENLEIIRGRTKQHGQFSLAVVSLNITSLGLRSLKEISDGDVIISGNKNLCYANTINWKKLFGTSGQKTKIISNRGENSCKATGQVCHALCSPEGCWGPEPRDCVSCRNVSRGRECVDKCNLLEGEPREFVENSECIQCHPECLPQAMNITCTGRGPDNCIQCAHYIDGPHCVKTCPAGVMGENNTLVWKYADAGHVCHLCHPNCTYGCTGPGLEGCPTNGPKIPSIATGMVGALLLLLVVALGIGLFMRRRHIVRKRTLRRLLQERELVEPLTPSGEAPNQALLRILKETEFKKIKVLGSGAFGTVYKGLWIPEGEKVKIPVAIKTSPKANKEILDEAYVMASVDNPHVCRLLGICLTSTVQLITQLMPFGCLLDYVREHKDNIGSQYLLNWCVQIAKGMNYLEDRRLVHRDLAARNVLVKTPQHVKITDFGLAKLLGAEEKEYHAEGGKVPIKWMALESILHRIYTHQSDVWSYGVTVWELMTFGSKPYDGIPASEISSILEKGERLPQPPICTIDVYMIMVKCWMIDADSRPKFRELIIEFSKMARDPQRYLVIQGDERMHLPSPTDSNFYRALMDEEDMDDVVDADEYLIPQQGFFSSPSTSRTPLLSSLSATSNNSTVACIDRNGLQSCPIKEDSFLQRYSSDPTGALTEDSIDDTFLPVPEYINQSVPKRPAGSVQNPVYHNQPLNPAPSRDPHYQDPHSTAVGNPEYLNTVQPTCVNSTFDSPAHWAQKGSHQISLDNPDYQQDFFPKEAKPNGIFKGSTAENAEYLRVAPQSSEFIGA
T2 sequence (P00533 25-1210 T790M/L858R): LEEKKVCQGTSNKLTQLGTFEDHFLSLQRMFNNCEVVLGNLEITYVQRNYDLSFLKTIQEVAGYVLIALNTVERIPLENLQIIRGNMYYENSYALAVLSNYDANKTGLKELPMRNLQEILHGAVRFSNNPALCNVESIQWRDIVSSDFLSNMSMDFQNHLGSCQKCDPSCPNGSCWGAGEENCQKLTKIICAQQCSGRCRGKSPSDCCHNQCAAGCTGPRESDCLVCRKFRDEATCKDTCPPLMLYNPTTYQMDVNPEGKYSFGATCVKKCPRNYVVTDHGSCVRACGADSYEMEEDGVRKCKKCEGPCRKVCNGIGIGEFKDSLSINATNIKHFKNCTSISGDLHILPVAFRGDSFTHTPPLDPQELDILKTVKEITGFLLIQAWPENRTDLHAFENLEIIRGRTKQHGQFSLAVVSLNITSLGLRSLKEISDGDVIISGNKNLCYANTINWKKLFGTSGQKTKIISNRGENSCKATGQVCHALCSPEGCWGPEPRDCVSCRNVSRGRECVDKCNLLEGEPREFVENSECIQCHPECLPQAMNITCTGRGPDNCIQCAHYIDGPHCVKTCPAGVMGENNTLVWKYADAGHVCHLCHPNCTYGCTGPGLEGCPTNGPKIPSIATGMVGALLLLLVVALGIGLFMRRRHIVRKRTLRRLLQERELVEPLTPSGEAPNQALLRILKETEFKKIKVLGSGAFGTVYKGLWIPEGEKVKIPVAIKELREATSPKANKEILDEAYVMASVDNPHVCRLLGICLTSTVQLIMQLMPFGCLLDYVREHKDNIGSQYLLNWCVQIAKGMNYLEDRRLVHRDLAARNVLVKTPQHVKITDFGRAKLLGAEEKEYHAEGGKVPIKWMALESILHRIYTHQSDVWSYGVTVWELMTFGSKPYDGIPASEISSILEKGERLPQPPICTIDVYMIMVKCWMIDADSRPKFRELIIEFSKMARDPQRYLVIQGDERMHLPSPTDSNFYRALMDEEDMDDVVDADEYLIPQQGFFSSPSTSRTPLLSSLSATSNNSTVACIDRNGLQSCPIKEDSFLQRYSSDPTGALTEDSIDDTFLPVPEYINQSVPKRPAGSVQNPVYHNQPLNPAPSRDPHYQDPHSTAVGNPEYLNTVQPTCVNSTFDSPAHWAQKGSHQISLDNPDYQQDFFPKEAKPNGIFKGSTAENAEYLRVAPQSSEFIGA

Compound: C=CC(=O)Nc1cc(Nc2ncc(Cl)c(-c3cnn4ccccc34)n2)c(OC)cc1N1CC[C@@H](N(C)C)C1 [Example 4, N-{5-[(5-Chloro-4-pyrazolo[1,5-a]pyridin-3-ylpyrimidin-2-yl)amino]-2-[(3R)-3-dimethylaminopyrrolidin-1-yl]-4-methoxyphenyl}prop-2-enamide]
- IC50 (Exon19 deletion EGFR): 0.0127 µM
- IC50 (L858R/T790M EGFR): 0.0016 µM
- IC50 (Wild-type EGFR): 0.51 µM

From patent US11524951B2, “2-(2,4,5-substituted-anilino)pyrimidine compounds” (AstraZeneca AB, priority 2011, dated 2022)
